Measurements: ChEMBL document CHEMBL3588834, “Towards bacterial adhesion-based therapeutics and detection methods” (Medchemcomm, 2014)
Blank lines part the entries; values can stand above or below the compound they belong to.

Legend:
[1] = Stability in mouse urinary bladder assessed as unchanged drug level at 100 mg/kg, po; assay type: ADME, organism-based; details: in vivo
Escherichia coli = assay: Antimicrobial activity against uropathogenic Escherichia coli infected in chronic mouse cystitis model assessed as reduction in bacterial levels at 100 mg/kg, po administered as single dose relative to untreated control; assay type: functional
Mus musculus [2] = assay: Time duration maintaining effective drug urine level in mouse at 10 mg/kg, ip; assay type: ADME, organism-based; details: in vivo
Mus musculus [3] = assay: Time duration maintaining >10 mM urine level in mouse at 50 mg/kg, po; assay type: ADME, organism-based; details: in vivo
[4] = Binding affinity to Pseudomonas aeruginosa LecA
[5] = Binding affinity to Pseudomonas aeruginosa LecB
[6] = Inhibition of Pseudomonas aeruginosa LecA by ELISA method
Streptococcus suis = assay: […] of Streptococcus suis by hemagglutination inhibition assay; assay type: functional, organism-based

Structure (SMILES): CNC(=O)c1cc(C(=O)NC)cc(-c2ccc(O[C@H]3O[C@H](CO)[C@@H](O)[C@H](O)[C@@H]3O)cc2)c1
Stability [1]: > 95% | fold change (FC) (Escherichia coli): 3 | Time (Mus musculus [2]): 8 h

Structure (SMILES): CNC(=O)c1cc(C(=O)NC)cc(-c2ccc(O[C@H]3O[C@H](CO)[C@@H](O)[C@H](O)[C@@H]3O)c(C)c2)c1
Time (Mus musculus [3]): 6 h

Structure (SMILES): CO[C@H]1O[C@H](CNS(=O)(=O)c2c(C)cc(C)cc2C)[C@@H](O)[C@H](O)[C@@H]1O
Kd [5]: 3300 nM

Structure (SMILES): COc1ccc(O[C@@H]2O[C@H](CO)[C@H](O[C@H]3O[C@H](CO)[C@H](O)[C@H](NC(=O)Nc4ccccc4)[C@H]3O)[C@H](O)[C@H]2O)cc1
IC50 (Streptococcus suis): 30 nM

Structure (SMILES): COCO[C@H]1[C@@H](O[C@@H]2[C@H](O)[C@@H](O)[C@H](Oc3ccc(OC)cc3)O[C@@H]2CO)O[C@H](CO)[C@H](O)[C@@H]1O
IC50 (Streptococcus suis): 50 nM

Structure (SMILES): O=C(CCSCC(CSCCC(=O)NCCO[C@@H]1O[C@H](CO)[C@H](O[C@H]2O[C@H](CO)[C@H](O)[C@H](O)[C@H]2O)[C@H](O)[C@H]1O)(CSCCC(=O)NCCO[C@@H]1O[C@H](CO)[C@H](O[C@H]2O[C@H](CO)[C@H](O)[C@H](O)[C@H]2O)[C@H](O)[C@H]1O)CSCCC(=O)NCCO[C@@H]1O[C@H](CO)[C@H](O[C@H]2O[C@H](CO)[C@H](O)[C@H](O)[C@H]2O)[C@H](O)[C@H]1O)NCCO[C@@H]1O[C@H](CO)[C@H](O[C@H]2O[C@H](CO)[C@H](O)[C@H](O)[C@H]2O)[C@H](O)[C@H]1O
IC50 (Streptococcus suis): 2 nM

Structure (SMILES): COC(=O)c1cc(OCCNC(=O)c2cc(OCCNC(=O)COCC(=O)NCCO[C@@H]3O[C@H](CO)[C@H](O[C@H]4O[C@H](CO)[C@H](O)[C@H](O)[C@H]4O)[C@H](O)[C@H]3O)cc(OCCNC(=O)COCC(=O)NCCO[C@@H]3O[C@H](CO)[C@H](O[C@H]4O[C@H](CO)[C@H](O)[C@H](O)[C@H]4O)[C@H](O)[C@H]3O)c2)cc(OCCNC(=O)c2cc(OCCNC(=O)COCC(=O)NCCO[C@@H]3O[C@H](CO)[C@H](O[C@H]4O[C@H](CO)[C@H](O)[C@H](O)[C@H]4O)[C@H](O)[C@H]3O)cc(OCCNC(=O)COCC(=O)NCCO[C@@H]3O[C@H](CO)[C@H](O[C@H]4O[C@H](CO)[C@H](O)[C@H](O)[C@H]4O)[C@H](O)[C@H]3O)c2)c1
IC50 (Streptococcus suis): 0.3 nM

Structure (SMILES): COc1ccc(O[C@@H]2O[C@H](CO)[C@H](O[C@H]3O[C@H](CO)[C@H](O)[C@H](O)[C@H]3O)[C@H](O)[C@H]2O)cc1
IC50 (Streptococcus suis): 310 nM

Structure (SMILES): OC[C@H]1O[C@@H](Sc2ccc3ccccc3c2)[C@H](O)[C@@H](O)[C@H]1O
Kd [4]: 6.3 µM

Structure (SMILES): O=C[C@H](O)[C@@H](O)[C@@H](O)[C@H](O)CO [GALACTOSE]
Kd [4]: 87.5 µM

Second part, the compound after the results:

Kd [4]: 4.2 µM
Structure (SMILES): CC(C)C[C@H](NC(=O)[C@@H]1CCCN1C(=O)[C@H](CCCCN)NC(=O)c1ccc(O[C@@H]2O[C@H](CO)[C@H](O)[C@H](O)[C@H]2O)cc1)C(N)=O

Kd [4]: 5.8 µM
Structure (SMILES): [N-]=[N+]=NCC(=O)Nc1ccc(O[C@@H]2O[C@H](CO)[C@H](O)[C@H](O)[C@H]2O)cc1

Kd [4]: 4.2 µM
Structure (SMILES): OC[C@H]1O[C@@H](Oc2ccc3ccccc3c2)[C@H](O)[C@@H](O)[C@H]1O

Kd [5]: 290 nM
Structure (SMILES): COC(=O)c1cn([C@@H]2O[C@H](CO)[C@@H](O[C@@H]3O[C@H](C)[C@@H](O)[C@@H](O)[C@@H]3O)[C@H](O)[C@H]2NC(C)=O)nn1

Kd [4]: 0.09 µM
Structure (SMILES): CC(C)(C)c1cc2c(Oc3cn(CC(=O)NCCOCCO[C@@H]4O[C@H](CO)[C@H](O)[C@H](O)[C@H]4O)nn3)c(c1)Cc1cc(C(C)(C)C)cc(c1Oc1cn(CC(=O)NCCOCCO[C@@H]3O[C@H](CO)[C@H](O)[C@H](O)[C@H]3O)nn1)Cc1cc(C(C)(C)C)cc(c1Oc1cn(CC(=O)NCCOCCO[C@@H]3O[C@H](CO)[C@H](O)[C@H](O)[C@H]3O)nn1)Cc1cc(C(C)(C)C)cc(c1Oc1cn(CC(=O)NCCOCCO[C@@H]3O[C@H](CO)[C@H](O)[C@H](O)[C@H]3O)nn1)C2

Kd [4]: 0.079 µM
Structure (SMILES): O=C(Cn1cc(CCC(=O)N[C@H]2[C@@H]3OC[C@H]4O[C@@H](OC[C@H]5O[C@@H](OC[C@H]6O[C@@H](OC[C@@H](O3)[C@@H](O)[C@@H]2O)[C@H](NC(=O)CCc2cn(CC(=O)Nc3ccc(O[C@@H]7O[C@H](CO)[C@H](O)[C@H](O)[C@H]7O)cc3)nn2)[C@@H](O)[C@@H]6O)[C@H](NC(=O)CCc2cn(CC(=O)Nc3ccc(O[C@@H]6O[C@H](CO)[C@H](O)[C@H](O)[C@H]6O)cc3)nn2)[C@@H](O)[C@@H]5O)[C@H](NC(=O)CCc2cn(CC(=O)Nc3ccc(O[C@@H]5O[C@H](CO)[C@@H](O)[C@H](O)[C@H]5O)cc3)nn2)[C@@H](O)[C@@H]4O)nn1)Nc1ccc(O[C@@H]2O[C@H](CO)[C@@H](O)[C@H](O)[C@H]2O)cc1

IC50 [6]: 3500 nM
Structure (SMILES): OC[C@H]1O[C@@H](OCc2cn([C@H]3[C@H](O)[C@@H](O)[C@H](n4cc([C@@H]5O[C@H](CO)[C@@H](n6cc(CO[C@@H]7O[C@H](CO)[C@H](O)[C@H](O)[C@H]7O)nn6)[C@H](O)[C@H]5O)nn4)O[C@@H]3CO)nn2)[C@H](O)[C@@H](O)[C@H]1O

IC50 [6]: 840 nM
Structure (SMILES): OC[C@H]1O[C@@H](OCc2cn([C@H]3[C@H](O)[C@@H](O)[C@H](c4cn([C@H]5[C@H](O)[C@@H](O)[C@H](n6cc([C@@H]7O[C@H](CO)[C@@H](n8cc([C@@H]9O[C@H](CO)[C@@H](n%10cc(CO[C@@H]%11O[C@H](CO)[C@H](O)[C@H](O)[C@H]%11O)nn%10)[C@H](O)[C@H]9O)nn8)[C@H](O)[C@H]7O)nn6)O[C@@H]5CO)nn4)O[C@@H]3CO)nn2)[C@H](O)[C@@H](O)[C@H]1O

Kd [5]: 210 nM
Structure (SMILES): CC(=O)N[C@H]1C(O)O[C@H](CO)[C@@H](O[C@@H]2O[C@@H](C)[C@@H](O)[C@@H](O)[C@@H]2O)[C@@H]1O[C@@H]1O[C@H](CO)[C@H](O)[C@H](O)[C@H]1O (stereo partly drawn)

IC50 [6]: 2.7 nM | Kd [4]: 0.028 µM
Structure (SMILES): OC[C@H]1O[C@@H](OCc2cn([C@H]3[C@H](O)[C@@H](O)[C@H](c4cn([C@H]5[C@H](O)[C@@H](O)[C@H](n6cc([C@@H]7O[C@H](CO)[C@@H](n8cc(CO[C@@H]9O[C@H](CO)[C@H](O)[C@H](O)[C@H]9O)nn8)[C@H](O)[C@H]7O)nn6)O[C@@H]5CO)nn4)O[C@@H]3CO)nn2)[C@H](O)[C@@H](O)[C@H]1O
